Data reported in article PMC10483468, “Biomimetic Dispersive Solid-Phase Microextraction: A Novel Concept for High-Throughput Estimation of Human Oral Absorption of Organic Compounds” (Analytical Chemistry, 2023).
“And” between values parts separate entries of the source, which are not always exact repeats. Identical values can stand only once.

test system: not listed separately; test: Dispersive extraction with the polymer prior to PC attachment (GMA@HMD@GA@HMD); format: physicochemical; settings: not given

extraction efficiency, GMA@HMD@GA@HMD	Compound
~40%	O=C(O)Cc1ccccc1Nc1c(Cl)cccc1Cl [DCF, diclofenac]

test system: not listed separately; test: Dispersive extraction with the free polymer (GMA monolith); format: physicochemical; settings: free polymer without PC

extraction efficiency, GMA monolith	Compound
~100%	O=C(O)Cc1ccccc1Nc1c(Cl)cccc1Cl [DCF, diclofenac]

test system: not listed separately; test: Dispersive biomimetic solid-phase extraction (d-BMSPE) with PC-modified POP material; format: in vitro ADME; settings: 3.5 mg/L CEC in 5 mL PBS pH 7.4, ca. 40 mg PC-modified POP, 15 rpm, 30 min, 37 °C
Experimental: The experimental procedure starts by spiking 5 mL of PBS at pH 7.4 mimicking pH conditions from the small intestine with 3.5 mg L^–1 of the selected CEC and mixing with ca. 40 mg of PC-modified POP material. The material is dispersed gently in the solution at 15 rpm for 30 min at physiological temperature (37 °C) using a lab rotator, followed by separation of the biomimetic material by centrifugation. After separation, the supernatant of the biomimetic extractions is analyzed by HPLC. The bioextractable fraction of every CEC is determined by subtraction from the original spike concentration.
Following the fabrication of the biomimetic polymer, several considerations should be set before carrying out the d-BMSPE. First, the amount of PC on the modified polymer (GMA@HMD@GA@HMD@PCs) to simulate the absorption area of the jejunum needs to be evaluated.
The estimated liquid volume under fasted conditions of the jejunum is ca. 20 mL.[45] However, in this work, solutions of 5 mL were selected in order to reduce the amount of biomimetic material used in every extraction protocol. Therefore, only 1/4 of the total PC amount calculated above (ca. 9 μmol) should be used to maintain the PC to jejunum liquid ratio. A crucial experimental parameter in our work is the amount of PC-laden biopolymer necessary to simulate the absorption area of the jejunum.
With respect to the remainder of experimental parameters, a gentle agitation was performed at 15 rpm to just enable a good dispersion of the polymer in the test solution. The extraction time was set to 30 min according to the average intestinal transit time and the length of the jejunum over the total length of the small intestine.[46] Finally, the extraction temperature was set to 37 °C to simulate physiological conditions.
In addition, a new bioparameter, “RMBE” that stands for "Relative Mol BioExtraction", is herein proposed for the first time. RMBE is defined as the extraction efficiency expressed as mol of analyte extracted per mol of PC attached to the biomimetic material under physiologically simulated conditions (e.g., extraction using PBS buffer at 37 °C, or gastrointestinal fluid surrogates, or actual human fluids, among others).

d-BMSPE extraction efficiency	Compound
15.3 ± 0.8%	CC(=O)Nc1ccc(O)cc1 [PCT, paracetamol]
26.3 ± 1.1%	NS(=O)(=O)c1cc(C(=O)O)c(NCc2ccco2)cc1Cl [FUR, furosemide]
10.6 ± 1.1%	O=C(O)Cc1ccccc1Nc1c(Cl)cccc1Cl [DCF, diclofenac]
0.9% and 0.9 ± 0.1%	CN(C)C(=N)N=C(N)N [MET, metformin]
4.6 ± 2.1%	CN/C(=N/CCSCc1nc[nH]c1C)NC#N [CTM, cimetidine]

same assay, conditions: value = RMBE x 10^4; mol analyte extracted per mol PC attached; PBS pH 7.4, 37 °C, 30 min

RMBE·10^4 (relative mol bioextraction)	Compound
60.3 ± 1.5 mol CEC/mol PC	CC(=O)Nc1ccc(O)cc1 [PCT, paracetamol]
49.8 ± 0.9 mol CEC/mol PC	NS(=O)(=O)c1cc(C(=O)O)c(NCc2ccco2)cc1Cl [FUR, furosemide]
22.6 ± 0.8 mol CEC/mol PC	O=C(O)Cc1ccccc1Nc1c(Cl)cccc1Cl [DCF, diclofenac]
3.6 ± 0.7 mol CEC/mol PC	CN(C)C(=N)N=C(N)N [MET, metformin]
9.6 ± 1.7 mol CEC/mol PC	CN/C(=N/CCSCc1nc[nH]c1C)NC#N [CTM, cimetidine]

test system: human jejunum; test: not given; settings: value = Peff x 10^4; cited from earlier work

Compound	experimental Peff·10^4
CC(=O)Nc1ccc(O)cc1 [PCT, paracetamol]	4.0[6] cm/ s
NS(=O)(=O)c1cc(C(=O)O)c(NCc2ccco2)cc1Cl [FUR, furosemide]	0.6[49] cm/ s
CC1=C(C(=O)O)N2C(=O)[C@@H](NC(=O)[C@H](N)c3ccccc3)[C@H]2SC1 [CEX, cephalexin]	1.6[6] cm/ s
O=C(O)Cc1ccccc1Nc1c(Cl)cccc1Cl [DCF, diclofenac]	1.6[40] cm/ s
CN(C)C(=N)N=C(N)N [MET, metformin]	0.1[52] cm/ s
CN/C(=N/CCSCc1nc[nH]c1C)NC#N [CTM, cimetidine]	0.8[51] cm/ s
Cc1cnc(C(=O)NCCc2ccc(S(=O)(=O)NC(=O)NC3CCCCC3)cc2)cn1 [GLP, glipizide]	0.9[38] cm/ s
